Legend:
bedstraw = assay: Test B pre/postemergence bedstraw; format: in vivo, Galium aparine; conditions: Preemergence
How it was run: (§1)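 Response is a visual 0-to-10 score relative to untreated plants, where 0 means no effect and 10 means complete control, taken twelve to sixteen days after application. Treatments went onto soil at planting and onto foliage of 1- to 4-leaf plants, using a surfactant-containing non-phytotoxic solvent.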

cocklebur = assay: Test B pre/postemergence cocklebur; format: in vivo, Xanthium strumarium
How it was run: as §1

purple nutsedge = assay: Test B pre/postemergence purple nutsedge; format: in vivo, Cyperus rotundus
How it was run: as §1

corn = assay: Test B pre/postemergence corn; format: in vivo, Zea mays
How it was run: as §1

giant foxtail = assay: Test B pre/postemergence giant foxtail; format: in vivo, Setaria faberii
How it was run: as §1

velvetleaf = assay: Test B pre/postemergence velvetleaf; format: in vivo, Abutilon theophrasti; conditions: for Plant response rating, Velvetleaf: Postemergence
How it was run: as §1

rape = assay: Test B pre/postemergence rape; format: in vivo, Brassica napus
How it was run: as §1

pigweed = assay: Test B pre/postemergence pigweed; format: in vivo, Amaranthus retroflexus; conditions: for Plant response rating, Redroot pigweed: Postemergence; for Redroot pigweed plant response rating: Preemergence
How it was run: as §1

surinam grass = assay: Test B pre/postemergence surinam grass; format: in vivo, Brachiaria decumbens
How it was run: as §1

blackgrass = assay: Test B pre/postemergence blackgrass; format: in vivo, Alopecurus myosuroides
How it was run: as §1

morningglory = assay: Test B pre/postemergence morningglory; format: in vivo, Ipomoea hederacea
How it was run: as §1

soybean = assay: Test B pre/postemergence soybean; format: in vivo, Glycine max; conditions: for Plant response rating, Soybean: Postemergence
How it was run: as §1

wheat = assay: Test B pre/postemergence wheat; format: in vivo, Triticum aestivum; conditions: for Plant response rating, Wheat: Postemergence
How it was run: as §1

wild oat = assay: Test B pre/postemergence wild oat; format: in vivo, Avena fatua; conditions: for Plant response rating, Wild oats: Postemergence
How it was run: as §1

sugar beet = assay: Test B pre/postemergence sugar beet; format: in vivo, Beta vulgaris; conditions: for Plant response rating, Sugarbeets: Postemergence
How it was run: as §1

crabgrass = assay: Test B pre/postemergence crabgrass; format: in vivo, Digitaria sanguinalis
How it was run: as §1

[1] = Rate 62 g/ha, scale 0 to 10 (0 no effect, 10 complete control)
[2] = Rate 125 g/ha, scale 0 to 10, 0 is no effect, 10 is complete control
[3] = Rate 500 g/ha, scale of 0 to 10 where 0 is no effect and 10 is complete control
[4] = Postemergence, Rate 62 g/ha, scale of 0 to 10, 0 is no effect, 10 is complete control
[5] = Postemergence, Rate 125 g/ha, scale 0 to 10, 0 is no effect, 10 is complete control
[6] = Postemergence, Rate 500 g/ha, scale of 0 to 10 where 0 is no effect and 10 is complete control
[7] = Preemergence, Rate 62 g/ha, scale 0 to 10 (0 no effect, 10 complete control)
[8] = Preemergence, Rate 125 g/ha, scale 0 to 10, 0 is no effect, 10 is complete control
[9] = Preemergence, Rate 500 g/ha, scale of 0 to 10 where 0 is no effect and 10 is complete control
[10] = Rate 250 g/ha, Postemergence, scale of 0 to 10 where 0 is no effect and 10 is complete control
[11] = Rate 250 g/ha, scale of 0 to 10 where 0 is no effect and 10 is complete control

CC(C)=CCn1c(=O)on(C(=O)N(c2ccccc2)C(C)C)c1=O [Compound 574]
8: Plant response rating, Giant foxtail (giant foxtail; [6])
4: B. signalgrass plant response rating (surinam grass; [7])
7: Giant foxtail plant response rating (giant foxtail; [5]) | B. signalgrass plant response rating (surinam grass; [8]) | Plant response rating, Soybean (soybean; [3])
10: Giant foxtail plant response rating (giant foxtail; [8]) | Giant foxtail plant response rating (0 to 10 scale) (giant foxtail; Preemergence, Rate 250 g/ha) | Giant foxtail plant response rating (giant foxtail; [9]) | B. signalgrass plant response rating (0 to 10 scale, 0 is no effect, 10 is complete control) (surinam grass; Preemergence, Rate 250 g/ha) | Morningglory plant response rating (morningglory; [4]) | Morningglory plant response rating (morningglory; [5]) | Plant response rating, Morningglory (morningglory; [6]) | Plant response rating, Morningglory (morningglory; [10])
5: Plant response rating, Redroot pigweed (pigweed; [3])
6: Plant response rating, Giant foxtail (giant foxtail; [10]) | Blackgrass plant response rating (blackgrass; [5]) | Plant response rating, Blackgrass (blackgrass; [10]) | Plant response rating, Soybean (soybean; [11])
2: Cocklebur plant response rating (cocklebur; [5]) | Plant response rating, Cocklebur (cocklebur; [6]) | Plant response rating, Cocklebur (cocklebur; [10]) | Giant foxtail plant response rating (giant foxtail; [4]) | Plant response rating, Velvetleaf (velvetleaf; [3]) | Velvetleaf plant response rating (0 to 10 scale) (velvetleaf; Preemergence, Rate 250 g/ha) | Velvetleaf plant response rating (velvetleaf; [9]) | Plant response rating, Velvetleaf (velvetleaf; [11]) | Blackgrass plant response rating (blackgrass; [4]) | Blackgrass plant response rating (0 to 10 scale) (blackgrass; Preemergence, Rate 250 g/ha) | Blackgrass plant response rating (blackgrass; [9]) | Plant response rating, Wheat (wheat; [3]) | Crabgrass plant response rating (crabgrass; [5]) | Plant response rating, Crabgrass (crabgrass; [6]) | Crabgrass plant response rating (crabgrass; [7])
0: Bedstraw plant response rating (bedstraw; [1]) | Bedstraw plant response rating (bedstraw; [2]) | Bedstraw plant response rating (0 to 10 scale) (bedstraw; Rate 250 g/ha) | Bedstraw plant response rating (bedstraw; [3]) | Cocklebur plant response rating (cocklebur; [4]) | Cocklebur plant response rating (cocklebur; [7]) | Cocklebur plant response rating (cocklebur; [8]) | Cocklebur plant response rating (0 to 10 scale) (cocklebur; Preemergence, Rate 250 g/ha) | Cocklebur plant response rating (cocklebur; [9]) | Nutsedge plant response rating (purple nutsedge; [4]) | Plant response rating, Nutsedge (purple nutsedge; [6]) | Nutsedge plant response rating (purple nutsedge; [7]) | Nutsedge plant response rating (purple nutsedge; [8]) | Nutsedge plant response rating (0 to 10 scale) (purple nutsedge; Preemergence, Rate 250 g/ha) | Nutsedge plant response rating (purple nutsedge; [9]) | Plant response rating, Nutsedge (purple nutsedge; [10]) | Corn plant response rating (corn; [4]) | Corn plant response rating (corn; [5]) | Plant response rating, Corn (corn; [6]) | Corn plant response rating (corn; [7]) | Corn plant response rating (corn; [8]) | Corn plant response rating (0 to 10 scale) (corn; Preemergence, Rate 250 g/ha) | Corn plant response rating (corn; [9]) | Plant response rating, Corn (corn; [10]) | Velvetleaf plant response rating (velvetleaf; [7]) | Velvetleaf plant response rating (velvetleaf; [8]) | Rape plant response rating (rape; [4]) | Rape plant response rating (rape; [5]) | Rape plant response rating (rape; [7]) | Rape plant response rating (rape; [8]) | Rape plant response rating (0 to 10 scale) (rape; Preemergence, Rate 250 g/ha) | Rape plant response rating (rape; [9]) | Plant response rating, Rape (rape; [10]) | Redroot pigweed plant response rating (pigweed; [1]) | Redroot pigweed plant response rating (pigweed; [2]) | Plant response rating, Redroot pigweed (pigweed; [11]) | B. signalgrass plant response rating (surinam grass; [4]) | B. signalgrass plant response rating (surinam grass; [5]) | Plant response rating, B. signalgrass (surinam grass; [6]) | Plant response rating, B. signalgrass (surinam grass; [10]) | Blackgrass plant response rating (blackgrass; [7]) | Blackgrass plant response rating (blackgrass; [8]) | Morningglory plant response rating (morningglory; [7]) | Morningglory plant response rating (morningglory; [8]) | Morningglory plant response rating (0 to 10 scale) (morningglory; Preemergence, Rate 250 g/ha) | Morningglory plant response rating (morningglory; [9]) | Soybean plant response rating (soybean; [7]) | Soybean plant response rating (soybean; [8]) | Soybean plant response rating (0 to 10 scale) (soybean; Preemergence, Rate 250 g/ha) | Soybean plant response rating (soybean; [9]) | Wheat plant response rating (wheat; [7]) | Wheat plant response rating (wheat; [8]) | Wheat plant response rating (0 to 10 scale) (wheat; Preemergence, Rate 250 g/ha) | Wheat plant response rating (wheat; [9]) | Plant response rating, Wheat (wheat; [11]) | Plant response rating, Wild oats (wild oat; [3]) | Wild oats plant response rating (wild oat; [7]) | Wild oats plant response rating (wild oat; [8]) | Wild oats plant response rating (0 to 10 scale) (wild oat; Preemergence, Rate 250 g/ha) | Plant response rating, Wild oats (wild oat; [11]) | Plant response rating, Sugarbeets (sugar beet; [3]) | Sugarbeets plant response rating (sugar beet; [7]) | Sugarbeets plant response rating (sugar beet; [8]) | Sugarbeets plant response rating (0 to 10 scale) (sugar beet; Preemergence, Rate 250 g/ha) | Plant response rating, Sugarbeets (sugar beet; [11]) | Crabgrass plant response rating (crabgrass; [4])
9: Giant foxtail plant response rating (giant foxtail; [7]) | Redroot pigweed plant response rating (pigweed; [3]) | B. signalgrass plant response rating (surinam grass; [9]) | Crabgrass plant response rating (crabgrass; [8]) | Crabgrass plant response rating (0 to 10 scale) (crabgrass; Preemergence, Rate 250 g/ha) | Crabgrass plant response rating (crabgrass; [9])
3: Plant response rating, Rape (rape; [6]) | Wild oats plant response rating (wild oat; [9]) | Sugarbeets plant response rating (sugar beet; [9])
